In patent US12012375B2, “Prostaglandin F2 alpha derivatives for decreasing intraocular pressure” (GURUS BIOPHARM LIMITED LIABILITY COMPANY, priority 2018, dated 2024):

Key:
[1] = system: 3T3-L1 cells; test: Nitric oxide generation (modified Griess method); type: cell-based, mice; settings: for NO generation, % to control: mice 3T3-L1 cells, concentration of 100 μM, 20 hours
Experimental: (§1) 3T3-L1 cells were incubated at 95% humidity, in the 5% CO2 atmosphere, at 37° C. Cultivation was performed in DMEM medium comprising 7% FCS, 2 mM of glutamine, 100 U/ml of penicillin, 100 μg/ml of streptomycin and 0.25 μg/ml of amphotericin B. Cells were subcultured every 48-72 hours. For the purpose of suspending the cells were incubated in Versene's solution within 2-3 minutes and in Trypsin-EDTA solution (0.25%).
Cells were inoculated by 30 thousand into wells (monolayer) of 96-well plate in 100 μl of medium. Incubation with substances lasted 20 hours. After that, medium aliquot was sampled from each well, and NO concentration was determined by modified Griess method. 12.5 μl of 0.04% sulfanilamide water solution were added to 75 μl of test medium in wells of 96-well plate for EIA, held within 10 minutes at room temperature protected from light, then, 12.5 μl of 2% naphthylethylenediamine solution in 3M of HCl were added, held again for 10 minutes at room temperature protected from light, then the optical absorption was determined at the wavelength of 540 nm.

[2] = system: 3T3-L1 cells; test: Cytotoxicity, MTT assay of cell survival; type: cell-based; settings: cultivated mice 3T3-L1 cells, 24 hours incubation
Experimental: as §1, with “solution within 1 minute and in” for “solution within 2-3 minutes and in”, “Trypsin-EDTA solution within 1 minute (0.25%).” for “Trypsin-EDTA solution (0.25%).”
(§2) Cells were inoculated by 30 thousand into wells of 96-well plate (monolayer) in 100 μl of medium for MTT-test. After 24 hours of cultivation 100 μl of test substances in the medium used for cell culture were added to the cells with replacement of culture medium with a new one. Cells were incubated with test substances for 24 hours. Cells, to which 100 μl of medium used for cell culture were added to, were used as […].
(§3) Assessment of cell survival in the culture using the MTT assay After the incubation, the medium was removed from each well, and then 100 μl of MTT solution were added to each well (0.5 mg/ml of MTT, 3.5 mg/ml of D-glucose in Hanks' solution). The plate was placed into CO2-incubator (Ependorf, Germany) for 1.5 h. After that, MTT was removed and 100 μl of DMSO were added to each well and mixed for 2 minutes in a shaker at 550 rpm. Then, the solution optical density was determined at the wavelength of 576 nm and 620 nm using a plate reader (EFOS 9305, OAO MZ Sapphir).

[3] = system: normotensive rabbits; test: Reducing intraocular pressure after instillation in normotensive rabbits; type: in vivo, chinchilla rabbits; settings: for IOP reduction: single instillation of 2 drops into both eyes, maximum value of 5 animals' average data within 6 hours
Experimental: The study was performed on chinchilla rabbits with a mass of 2.5-3 kg. IOP was measured by automatic manual veterinary tonometer Tonovet (Icare, Finland).
2 groups of rabbets were used for testing each sample:
5 animals instilled with a single dose of sample into both eyes.
5 animals instilled with a single dose of normal saline into both eyes.
All test samples were instilled by 2 drops by a disposable pipette. IOP was measured before instillation and further, every hour within 6 hours. All tested substances were capable of reducing intraocular pressure in normotensive rabbits.

[4] = Cytotoxicity, MTT assay of cell survival; type: cell-based; settings: mouse, cultivated mice 3T3-L1 cells, 24 hours incubation
Experimental: as §1, with “solution within 1 minute and in” for “solution within 2-3 minutes and in”, “Trypsin-EDTA solution within 1 minute (0.25%).” for “Trypsin-EDTA solution (0.25%).”
as §2, §3

[5] = system: 3T3-L1 cells; test: Increase of intracellular calcium concentration (Calcium Green fluorescence); type: cell-based, mice; settings: 67 μM stated for the reference substances, for 10 minutes
Experimental: 3T3-L1 cells were cultivated in DMEM medium with addition of 10% fetal calf serum (FCS), 4 mM of L-glutamine, 100 U/ml of penicillin, 100 μg/ml of streptomycin, 2.5 μg/ml of amphotericin B. Cells were cultured in the atmosphere of 5% CO2, 95% humidity at 37° C. Cell density at the time of experiment was 7000 per well of a 96-well plate, Calcium Green dye (1.5 mM, loading in 0.4% Pluronic F-62 in incubation medium without BSA for 1 hour at 37° C., triple washing of 200 μl of incubation medium after loading), incubation medium: Hanks' solution, 1 g/l of D-glucose, 1 mg/ml of fat-free BSA, introduction of substances in ethanol (<0.5% final concentration), incubation at 25° C., detecting at the excitation wavelength 485 nm, emission wavelength 535 nm.

| Compound | NO generation, % to control [1] | EC50 [2] | IOP reduction [3] | calcium sensor fluorescence increase relative to control [5] | also measured |
| --- | --- | --- | --- | --- | --- |
| CCCCCC(O)C=CC1C(O)CC(O)C1CC=CCCCC(=O)NC(CO)C(=O)O [Compound 2, Prostaglandin F2α Amide with L-Serine] | 25% | > 200 µM |  |  |  |
| CCCCC[C@H](O)/C=C/[C@@H]1[C@@H](C/C=C\CCCC(=O)NC2CC2)[C@@H](O)C[C@H]1O [Compound 6, Prostaglandin F2α Amide with Cyclopropylamine] | 5% | 124 ± 2 µM | 3.30 mm Hg |  | ability to reduce intraocular pressure (in words) [3]: more prominent |
| CCCCCC(O)C=CC1C(O)CC(O)C1CC=CCCCC(=O)N1CCCC1CO [Compound 7, Prostaglandin F2a Amide with L-Prolinol] | 15% | 104 ± 2 µM |  |  |  |
| CCCCC[C@H](O)/C=C/[C@@H]1[C@@H](C/C=C\CCCC(=O)NCCOC(=O)NCCO[N+](=O)[O-])[C@@H](O)C[C@H]1O [Compound 11, Prostaglandin F2α Amide with 2-Aminoethyl-[2-(Nitroxy)Ethyl]Carbamate] | 28% |  | 1.50 mm Hg |  | EC50 at 24 h [4]: 184 ± 3 µM |
| CCCCC[C@H](O)/C=C/[C@@H]1[C@@H](C/C=C\CCCC(=O)NCCO)[C@@H](O)C[C@H]1O [prostamide F2, prostaglandin F2α ethanolamide] |  |  |  | 185 AU |  |
| Prostaglandin F2α Amide with L-Nitroserine Isopropyl Ether [Compound 5] |  | 195 ± 2 µM | 1.20 mm Hg |  |  |
| Prostaglandin F2α Amide with L-Nitroserine [Compound 1] | 7% | 226.4 ± 2 µM |  |  |  |
| Prostaglandin F2α Amide with L-Serine Isopropyl Ether [Compound 3] | 15% | 144 ± 3 µM | 3.20 mm Hg | 405 AU | ability to reduce intraocular pressure (in words) [3]: more prominent; nitric oxide level increase relative to control ([1]; 3T3-L1 cells, 25 μM): 60%; concentration of maximum activity (most effective concentration) for induction of nitrogen oxide generation ([1]; 3T3-L1 cells, tested 25 to 100 μM): 25 µM |
| Prostaglandin F2α Amide with γ-Aminobutyric Acid Nitroethanolamide [Compound 8] | 22% |  | 2.00 mm Hg |  |  |
| prostaglandin F2α |  |  |  | 195 AU |  |
